{"source": "patent US20150038707A1", "about": "“PROCESS FOR MAKING CGRP RECEPTOR ANTAGONISTS” (Merck Sharp & Dohme Corp., priority 2012, published 2015)", "key": {"mosquitoes (Ae. aegypti)": {"test_system": "mosquitoes (Ae. aegypti)", "assay": "Compound residual life: contact irritancy (Example 10)", "format": "in vivo", "details": "for Number escaping (mean +/- SE), treated: 10 mosquitoes per run, 6 runs per net sample", "description": "(§1) Four compounds of formula (I) were tested for contact irritancy (i.e., movement away from the source after physical contact) at low doses on female Aedes aegypti (Thailand strain) mosquitoes. The contact irritant response was determined by use of the contact irritant assay disclosed by Grieco et al. in “A New Classification System for the Actions of IRS Chemicals Traditionally Used for Malaria Control,” Plos One, Issue 8 (2007) (available at www.plosone.org). The assay used was a cylindrical assembly that included a metal treatment end to which 10 mosquitoes were introduced and a clear receiving chamber. The treatment end included a netting strip (nylon organdy) that was treated with the insecticide of interest at the relevant dose. A butterfly valve separated the treatment end from the remainder of the assembly.\nContact irritancy tests (blind testing) were performed for several samples of compounds 1405 and 1406 at 0 weeks, 2 weeks, 4 weeks, 8 weeks and 12 weeks to determine the residual contact irritancy of the compounds on mosquitoes (Ae. aegypti). Between testing, the nets were hung in the lab and held at a temperature of 27-29° C. and 56-67% relative humidity. Each run was performed 6 times for each sample with 10 mosquitoes used in each run (60 mosquitoes total)."}, "[1]": {"test_system": "Ae. aegypti Isla mujeres strain (metabolically pyrethroid resistant)", "assay": "Toxicity assay on treated netting (Example 7), Isla mujeres strain", "format": "in vivo", "description": "(§2) Several compounds were tested to determine their toxic effect on Ae. aegypti mosquitoes. Three mosquito strains were tested—Houston which is pyrethroid susceptible, That which is pyrethroid tolerant and Isla Mujer which is metabolically pyrethroid resistant.\n(§3) The toxicity assay involved a single chamber to which treated netting was added. Twenty (20) mosquitoes were transferred to the chamber. After 1 hour, the number of knocked down mosquitoes was recorded and all mosquitoes were transferred to holding cartoons. The mosquitoes were given a 10% sucrose-soaked cotton ball and returned to the insectary. Mortaility was measured after 24 hours. A control assay using acetone-treated netting was used. Six replicates were performed at each treatment concentration."}, "Susceptible An. Gambiae": {"test_system": "Susceptible An. Gambiae", "assay": "Bottle toxicity assay (Example 8), susceptible mosquitoes", "format": "in vivo, Anopheles gambiae", "description": "Several compounds were tested to determine their toxic effect on knockdown resistant Anopheles gambiae mosquitoes and susceptible mosquitoes. Acetone and different amounts of pesticides were added to 250 ml bottles. In one bottle, only acetone was added as a control. The bottles were rotated in all directions while uncapped until all acetone was evaporated and the insecticide was coated onto the inside surfaces of the bottle. A number of knockdown resistant Anopheles gambiae mosquitoes were added to the bottle. The number of dead mosquitoes was recorded at 1 hour and 24 hours."}, "[2]": {"test_system": "Ae. Aegypti, That strain (pyrethroid tolerant)", "assay": "Contact irritancy on pyrethroid tolerant mosquitoes (Example 5)", "format": "in vivo", "description": "as §1\n(§4) Each composition was applied to the netting strip at a varied dose via a 1.5 ml acetone solution. Four (4) treatment concentrations were used—0.0025 nmol/cm^2, 0.025 nmol/cm^2, 0.25 nmol/cm^2 and 2.5 nmol/cm^2. Netting was allowed to dry for 15 minutes prior to placement in the cylinder. Control assays were performed with netting treated with acetone only.\n(§5) For each run, 10 mosquitoes were transferred into the treatment end of the assembly and, after 30 seconds, the butterfly valve was opened. The valve was closed after 10 minutes and the number of mosquitoes in the clear end (i.e., the number of escaped mosquitoes) was tested.\n(§6) The contact irritancy protocol of Example 2 was used to determine contact irritancy against mosquitoes (Ae. Aegypti) that had acquired metabolic resistance against pyrethroids. Alphacypermethrin and transfluthrin were also tested. Three mosquito strains were tested—Houston which is pyrethroid susceptible, That which is pyrethroid tolerant and Isla Mujer which is metabolically pyrethroid resistant."}, "[3]": {"test_system": "Ae. aegypti Houston strain (pyrethroid susceptible)", "assay": "Toxicity assay on treated netting (Example 7), Houston strain", "format": "in vivo", "description": "as §2, §3"}, "[4]": {"test_system": "Ae. Aegypti strains Houston, That and Isla Mujer", "assay": "Spatial repellency on metabolically resistant mosquitoes (Example 6)", "format": "in vivo", "description": "The four compounds of formula I described in Example 2 were tested for spatial repellency (directed movement away from the chemical source without the insect making physical contact with the treated surface) at low doses on female Aedes aegypti (Thailand strain) mosquitoes. The spatial repellency response was determined by use of the spatial repellency assay disclosed by Grieco et al. in “A New Classification System for the Actions of IRS Chemicals Traditionally Used for Malaria Control” in Plos One, Issue 8 (2007) (available at www.plosone.org) which is incorporated herein by reference for all relevant and consistent purposes. The assay used was a cylindrical assembly that included a treatment chamber at one end and a control chamber at the other end. The treatment chamber included a netting strip (nylon organdy) that was treated with the insecticide of interest at the relevant dose. The treatment chamber and control chamber were connected by a clear cylinder and were separated from the clear cylinder by butterfly valves. Twenty (20) mosquitoes were introduced into the clear central chamber and the butterfly valves were opened after 30 seconds. After 10 minutes, the valves were closed and the number of mosquitoes in each chamber was counted.\nas §6, with “spatial repellency” for “contact irritancy”, “3” for “2”, “DDT” for “Alphacypermethrin”"}, "[5]": {"test_system": "Ae. Aegypti, Isla Mujer strain (metabolically pyrethroid resistant)", "assay": "Contact irritancy on metabolically resistant mosquitoes (Example 5)", "format": "in vivo", "description": "as §1, §4, §5, §6"}, "[6]": {"details": "Dose 0.025 nm/cm^2, Time 1 hour"}, "[7]": {"details": "Dose 0.025 nm/cm^2, Time 24 hours"}, "[8]": {"details": "Dose 0.0725 nm/cm^2, Time 1 hour"}, "[9]": {"details": "Dose 0.0725 nm/cm^2, Time 24 hours"}, "[10]": {"details": "Dose 0.125 nm/cm^2, Time 1 hour"}, "[11]": {"details": "Dose 0.125 nm/cm^2, Time 24 hours"}, "[12]": {"details": "Dose 0.25 nm/cm^2, Time 24 hours"}, "[13]": {"details": "Dose 2.5 nm/cm^2, Time 24 hours"}}, "note": "Values joined by “and” are separate entries in the source; they are usually repeats but may differ in a detail not shown here. Equal entries are not always repeated.", "data": [{"smiles": "CC1(C)C(C=C(Cl)C(F)(F)F)C1C(=O)OCc1ccc(F)c(C(F)(F)F)c1F", "note": "(stereo not drawn) [Compound 1405]", "values": [{"measurement": "Percent escaping (mean ± SE)", "setting": "mosquitoes (Ae. aegypti); Time 0 week", "value": "90 ± 5% and 80 ± 5% and 85 ± 4% and 88 ± 5%"}, {"measurement": "Percent escaping (mean ± SE)", "setting": "mosquitoes (Ae. aegypti); Time 2 week", "value": "47 ± 6% and 42 ± 7% and 47 ± 3% and 47 ± 4%"}, {"measurement": "Number escaping (mean +/- SE), treated", "setting": "mosquitoes (Ae. aegypti); Time 2 week", "value": "1.7 ± 0.6 and 2.2 ± 0.7 and 1.7 ± 0.4"}, {"measurement": "Number escaping (mean +/- SE), treated", "setting": "mosquitoes (Ae. aegypti); Time 8 week", "value": "1.8 ± 0.5 and 2.2 ± 0.5 and 1.8 ± 0.9 and 1.5 ± 0.6"}, {"measurement": "Isla mujeres (% dead (SE))", "setting": "[1]; [6]", "value": 100, "unit": "%"}, {"measurement": "Isla mujeres (% dead (SE))", "setting": "[1]; [7]", "value": 11.84, "unit": "%"}, {"measurement": "Isla mujeres (% dead (SE))", "setting": "[1]; [8]", "value": 100, "unit": "%"}, {"measurement": "Isla mujeres (% dead (SE))", "setting": "[1]; [9]", "value": 9.69, "unit": "%"}, {"measurement": "Isla mujeres (% dead (SE))", "setting": "[1]; [10]", "value": 100, "unit": "%"}, {"measurement": "Isla mujeres (% dead (SE))", "setting": "[1]; [11]", "value": 9.89, "unit": "%"}, {"measurement": "Isla mujeres (% dead (SE))", "setting": "[1]; Dose 0.25 nm/cm^2, Time 1 hour", "value": 100, "unit": "%"}, {"measurement": "Isla mujeres (% dead (SE))", "setting": "[1]; [12]", "value": 100, "unit": "%"}, {"measurement": "Isla mujeres (% dead (SE))", "setting": "[1]; Dose 2.5 nm/cm^2, Time 1 hour", "value": 100, "unit": "%"}, {"measurement": "Isla mujeres (% dead (SE))", "setting": "[1]; [13]", "value": 100, "unit": "%"}, {"measurement": "toxicity to resistant populations compared with standard compounds", "setting": "[1]; summary of Table 2", "value": "more toxic to resistant populations than permethrin, matfluthrin and transfluthrin"}, {"measurement": "Susceptible An. Gambiae (% dead (SE))", "setting": "Susceptible An. Gambiae; Dose 0.00025 μg/bottle, Strain Tested F123, Time 1 hour", "value": 100, "unit": "%"}, {"measurement": "Susceptible An. Gambiae (% dead (SE))", "setting": "Susceptible An. Gambiae; Dose 0.00025 μg/bottle, Strain Tested F123, Time 24 hours", "value": 87, "unit": "%"}, {"measurement": "Susceptible An. Gambiae (% dead (SE))", "setting": "Susceptible An. Gambiae; Dose 0.0025 μg/bottle, Strain Tested F122, Time 1 hour", "value": 100, "unit": "%"}, {"measurement": "Susceptible An. Gambiae (% dead (SE))", "setting": "Susceptible An. Gambiae; Dose 0.0025 μg/bottle, Strain Tested F122, Time 24 hours", "value": 95, "unit": "%"}, {"measurement": "Susceptible An. Gambiae (% dead (SE))", "setting": "Susceptible An. Gambiae; Dose 0.0025 μg/bottle, Strain Tested F123, Time 1 hour", "value": 100, "unit": "%"}, {"measurement": "Susceptible An. Gambiae (% dead (SE))", "setting": "Susceptible An. Gambiae; Dose 0.0025 μg/bottle, Strain Tested F123, Time 24 hours", "value": 100, "unit": "%"}, {"measurement": "Susceptible An. Gambiae (% dead (SE))", "setting": "Susceptible An. Gambiae; Dose 0.025 μg/bottle, Strain Tested F122, Time 1 hour", "value": 100, "unit": "%"}, {"measurement": "Susceptible An. Gambiae (% dead (SE))", "setting": "Susceptible An. Gambiae; Dose 0.025 μg/bottle, Strain Tested F122, Time 24 hours", "value": 100, "unit": "%"}, {"measurement": "Susceptible An. Gambiae (% dead (SE))", "setting": "Susceptible An. Gambiae; Dose 0.025 μg/bottle, Strain Tested F123, Time 1 hour", "value": 100, "unit": "%"}, {"measurement": "Susceptible An. Gambiae (% dead (SE))", "setting": "Susceptible An. Gambiae; Dose 0.025 μg/bottle, Strain Tested F123, Time 24 hours", "value": 100, "unit": "%"}, {"measurement": "Susceptible An. Gambiae (% dead (SE))", "setting": "Susceptible An. Gambiae; Dose 0.25 μg/bottle, Strain Tested F122, Time 1 hour", "value": 100, "unit": "%"}, {"measurement": "Susceptible An. Gambiae (% dead (SE))", "setting": "Susceptible An. Gambiae; Dose 0.25 μg/bottle, Strain Tested F122, Time 24 hours", "value": 100, "unit": "%"}, {"measurement": "Susceptible An. Gambiae (% dead (SE))", "setting": "Susceptible An. Gambiae; Dose 0.25 μg/bottle, Strain Tested F123, Time 1 hour", "value": 100, "unit": "%"}, {"measurement": "Susceptible An. Gambiae (% dead (SE))", "setting": "Susceptible An. Gambiae; Dose 0.25 μg/bottle, Strain Tested F123, Time 24 hours", "value": 100, "unit": "%"}, {"measurement": "Susceptible An. Gambiae (% dead (SE))", "setting": "Susceptible An. Gambiae; Dose 2.5 μg/bottle, Strain Tested F122, Time 1 hour", "value": 100, "unit": "%"}, {"measurement": "Susceptible An. Gambiae (% dead (SE))", "setting": "Susceptible An. Gambiae; Dose 2.5 μg/bottle, Strain Tested F122, Time 24 hours", "value": 100, "unit": "%"}, {"measurement": "Susceptible An. Gambiae (% dead (SE))", "setting": "Susceptible An. Gambiae; Dose 2.5 μg/bottle, Strain Tested F123, Time 1 hour", "value": 100, "unit": "%"}, {"measurement": "Susceptible An. Gambiae (% dead (SE))", "setting": "Susceptible An. Gambiae; Dose 2.5 μg/bottle, Strain Tested F123, Time 24 hours", "value": 100, "unit": "%"}, {"measurement": "Susceptible An. Gambiae (% dead (SE))", "setting": "Susceptible An. Gambiae; Dose 25 μg/bottle, Strain Tested F123, Time 1 hour", "value": 100, "unit": "%"}, {"measurement": "Susceptible An. Gambiae (% dead (SE))", "setting": "Susceptible An. Gambiae; Dose 25 μg/bottle, Strain Tested F123, Time 24 hours", "value": 100, "unit": "%"}, {"measurement": "contact irritancy, tolerant strain (FIG. 4)", "setting": "[2]", "value": "contact irritants for tolerant strains"}, {"measurement": "Houston (% dead (SE))", "setting": "[3]; [6]", "value": 100, "unit": "%"}, {"measurement": "Houston (% dead (SE))", "setting": "[3]; [7]", "value": 100, "unit": "%"}, {"measurement": "Houston (% dead (SE))", "setting": "[3]; [8]", "value": 100, "unit": "%"}, {"measurement": "Houston (% dead (SE))", "setting": "[3]; [9]", "value": 100, "unit": "%"}, {"measurement": "Houston (% dead (SE))", "setting": "[3]; [10]", "value": 100, "unit": "%"}, {"measurement": "Houston (% dead (SE))", "setting": "[3]; [11]", "value": 100, "unit": "%"}, {"measurement": "Houston (% dead (SE))", "setting": "[3]; Dose 0.25 nm/cm^2, Time 1 hour", "value": 100, "unit": "%"}, {"measurement": "Houston (% dead (SE))", "setting": "[3]; [12]", "value": 100, "unit": "%"}, {"measurement": "Houston (% dead (SE))", "setting": "[3]; Dose 2.5 nm/cm^2, Time 1 hour", "value": 100, "unit": "%"}, {"measurement": "Houston (% dead (SE))", "setting": "[3]; [13]", "value": 100, "unit": "%"}, {"measurement": "spatial repellency, all strains (FIG. 5)", "setting": "[4]", "value": "spatial repellants for all strains"}, {"measurement": "contact irritancy, resistant strain (FIG. 4)", "setting": "[5]", "value": "effective in resistant strains"}]}]}
